Experimental findings from BindingDB's records for doi:10.3109/14756360903179377 (Graduate University of Chinese Academy of Sciences, 2010) are described below.

The experiment deals with Fatty acid synthase (Gallus gallus, UniProt P12276). Nature of the experiment: FAS Activity Assay. Particulars: pH 7; 37 °C. The method, then:
FAS activity was determined by monitoring the decrease in absorbence at 340 nm resulting from the oxidation of NADPH using an Amersham Pharmacia Ultrospec 4300 pro UV-Vis spectrophotometer at 37°C. The assay mixture contained 100 mM potassium phosphate buffer, pH 7.0, 1 mM EDTA (ethylenediaminetetraacetic acid), 2.5 μM acetyl-CoA, 10 μM malonyl-CoA, 32 μM NADPH, and 10 μg chicken liver FAS in a total volume of 2.0 mL [Tian et al., J. Biol. Chem., 260:11375-87]. Fast inhibition was determined by adding thioether to the reaction system before FAS initiated the reaction. The initial velocity was measured to calculate the remaining activity (RA) of FAS, and each assay was repeated three times.

pIC50: −log10 of the molar value.

Chain of Fatty acid synthase (P12276 whole entry): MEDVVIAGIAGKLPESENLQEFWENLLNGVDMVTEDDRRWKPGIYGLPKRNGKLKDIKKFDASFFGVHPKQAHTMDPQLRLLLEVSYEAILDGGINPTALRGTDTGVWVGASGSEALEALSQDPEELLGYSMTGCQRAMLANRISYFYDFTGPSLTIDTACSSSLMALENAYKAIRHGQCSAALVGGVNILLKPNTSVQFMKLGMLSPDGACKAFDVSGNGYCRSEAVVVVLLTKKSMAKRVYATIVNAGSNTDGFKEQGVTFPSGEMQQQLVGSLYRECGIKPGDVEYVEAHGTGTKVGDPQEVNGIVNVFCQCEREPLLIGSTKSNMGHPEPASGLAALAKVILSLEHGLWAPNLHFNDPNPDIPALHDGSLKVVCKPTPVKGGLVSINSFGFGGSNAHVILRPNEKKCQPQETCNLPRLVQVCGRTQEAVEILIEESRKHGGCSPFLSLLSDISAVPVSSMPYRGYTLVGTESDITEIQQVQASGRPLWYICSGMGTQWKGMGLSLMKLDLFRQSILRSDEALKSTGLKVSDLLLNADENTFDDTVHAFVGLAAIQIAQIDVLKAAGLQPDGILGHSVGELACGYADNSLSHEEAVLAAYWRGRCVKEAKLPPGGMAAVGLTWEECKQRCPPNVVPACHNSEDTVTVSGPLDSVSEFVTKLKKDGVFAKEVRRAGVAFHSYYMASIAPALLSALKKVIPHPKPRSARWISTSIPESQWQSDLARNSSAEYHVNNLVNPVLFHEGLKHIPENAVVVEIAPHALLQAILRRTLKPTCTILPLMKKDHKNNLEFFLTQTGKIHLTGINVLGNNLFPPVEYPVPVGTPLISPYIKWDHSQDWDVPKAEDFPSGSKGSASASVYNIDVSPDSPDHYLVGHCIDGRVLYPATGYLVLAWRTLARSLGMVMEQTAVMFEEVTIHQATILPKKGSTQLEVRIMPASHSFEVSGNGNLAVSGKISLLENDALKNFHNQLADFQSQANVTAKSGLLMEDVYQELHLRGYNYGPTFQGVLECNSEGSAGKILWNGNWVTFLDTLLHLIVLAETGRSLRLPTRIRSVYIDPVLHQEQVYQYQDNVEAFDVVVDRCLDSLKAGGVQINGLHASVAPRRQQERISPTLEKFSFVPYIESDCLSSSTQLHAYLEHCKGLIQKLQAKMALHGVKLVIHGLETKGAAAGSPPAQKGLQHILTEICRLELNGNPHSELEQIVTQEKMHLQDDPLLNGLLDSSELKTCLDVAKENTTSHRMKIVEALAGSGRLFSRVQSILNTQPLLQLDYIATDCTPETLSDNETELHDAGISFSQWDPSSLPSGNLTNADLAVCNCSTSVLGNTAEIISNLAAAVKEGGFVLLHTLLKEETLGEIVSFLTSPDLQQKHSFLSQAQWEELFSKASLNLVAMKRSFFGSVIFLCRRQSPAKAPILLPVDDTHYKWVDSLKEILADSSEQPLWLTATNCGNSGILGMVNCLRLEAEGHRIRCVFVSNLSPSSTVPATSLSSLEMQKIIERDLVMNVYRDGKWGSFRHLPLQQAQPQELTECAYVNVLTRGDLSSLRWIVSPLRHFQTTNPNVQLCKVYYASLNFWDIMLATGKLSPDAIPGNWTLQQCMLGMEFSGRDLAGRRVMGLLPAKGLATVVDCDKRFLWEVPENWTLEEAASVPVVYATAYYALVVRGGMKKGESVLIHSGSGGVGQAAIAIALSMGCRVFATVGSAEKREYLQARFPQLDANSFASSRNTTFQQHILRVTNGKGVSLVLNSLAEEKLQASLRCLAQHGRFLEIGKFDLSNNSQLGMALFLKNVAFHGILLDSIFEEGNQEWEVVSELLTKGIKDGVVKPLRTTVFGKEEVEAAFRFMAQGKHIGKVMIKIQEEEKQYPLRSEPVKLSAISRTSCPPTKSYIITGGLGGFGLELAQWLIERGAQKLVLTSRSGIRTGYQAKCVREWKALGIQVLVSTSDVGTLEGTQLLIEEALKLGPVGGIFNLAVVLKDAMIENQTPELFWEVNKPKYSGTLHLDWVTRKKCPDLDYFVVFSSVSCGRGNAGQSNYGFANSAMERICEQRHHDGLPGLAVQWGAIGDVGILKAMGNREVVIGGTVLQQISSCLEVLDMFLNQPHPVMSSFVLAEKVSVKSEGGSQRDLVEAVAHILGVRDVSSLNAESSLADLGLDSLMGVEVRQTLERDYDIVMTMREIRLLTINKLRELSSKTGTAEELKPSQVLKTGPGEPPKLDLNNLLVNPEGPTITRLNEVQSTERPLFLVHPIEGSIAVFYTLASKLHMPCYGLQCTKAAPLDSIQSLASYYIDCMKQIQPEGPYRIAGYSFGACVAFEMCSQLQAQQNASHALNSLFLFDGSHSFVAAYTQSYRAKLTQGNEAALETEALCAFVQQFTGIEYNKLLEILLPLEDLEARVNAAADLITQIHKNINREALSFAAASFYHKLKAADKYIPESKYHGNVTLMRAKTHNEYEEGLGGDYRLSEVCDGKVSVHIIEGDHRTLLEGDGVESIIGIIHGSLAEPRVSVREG

In general, pIC50 refers to the IC50 on a negative log10 scale, so that one unit is a factor of ten. A higher pIC50 goes with a small IC50. `C=CCSSCC=C` [3-Allyldisulfanyl-propene] had a negative-log IC50 (pIC50) of 3.84.
The compound `C=CCSSSCC=C` [Diallyl trisulfide] gave a pIC50 of 5.08.
With `CSSC` [Dimethyl disulfide], the pIC50 was 2.66.
